The source made the active and inactive calls. No cut-off for these calls is given here.
Key:
[1] = biological target: T1, Heat shock protein HSP90 (Homo sapiens) (UniProt P07900+P08238); assay: Inhibition of HSP90 in human MCF7 cells assessed as induction of mitochondrial membrane potential loss by measuring cell population with intact mitochondrial membrane potential at 1 uM after 24 hrs by JC1 staining-based flow cytometry analysis (reference value: 92.39 %); parameters: scale not given: the % may be the effect or the level left
[2] = biological target: T1, Heat shock protein HSP90 (Homo sapiens); assay: Inhibition of HSP90 in human MCF7 cells assessed as induction of apoptosis by measuring necrotic cells at 1 uM measured after 24 hrs by annexinV-FITC/propidium iodide staining based flow cytometry (reference value: 0.01 %); type: cell-based; parameters: scale not given: the % may be the effect or the level left
[3] = biological target: T1, Heat shock protein HSP90 (Homo sapiens); assay: Inhibition of HSP90 in human MCF7 cells assessed as induction of apoptosis by measuring total apoptotic and dead cell population at 1 uM measured after 24 hrs by annexinV-FITC/propidium iodide staining based flow cytometry (reference value: 9.23 %); parameters: scale not given: the % may be the effect or the level left
[4] = biological target: T1, Heat shock protein HSP90 (Homo sapiens); assay: Inhibition of HSP90 in human MCF7 cells assessed as cell cycle arrest by measuring accumulation at G0/G1 phase at 1 uM measured after 24 hrs by RNaseA/propidium iodide staining based flow cytometric analysis (reference value: 39.10 %); parameters: scale not given: the % may be the effect or the level left
[5] = biological target: T1, Heat shock protein HSP90 (Homo sapiens); assay: Inhibition of HSP90 in human MCF7 cells assessed as induction of nuclear morphological changes by measuring nuclear fragmentation at 1 uM by DAPI staining based fluorescence microscopy analysis; type: cell-based
[6] = biological target: T1, Heat shock protein HSP90 (Homo sapiens); assay: Inhibition of HSP90 in human MCF7 cells assessed as induction of apoptosis by measuring late apototic cells at 1 uM measured after 24 hrs by annexinV-FITC/propidium iodide staining based flow cytometry (reference value: 7.91 %); type: cell-based; parameters: scale not given: the % may be the effect or the level left
[7] = biological target: T1, Heat shock protein HSP90 (Homo sapiens); assay: Inhibition of HSP90 in human MCF7 cells assessed as cell cycle arrest by measuring accumulation at S phase at 1 uM measured after 24 hrs by RNaseA/propidium iodide staining based flow cytometric analysis (reference value: 7.08 %); parameters: scale not given: the % may be the effect or the level left
[8] = biological target: T1, Heat shock protein HSP90 (Homo sapiens); assay: Inhibition of HSP90 in human MCF7 cells assessed as induction of morphological changes by measuring apoptotic body formation at 1 uM by acridine orange/ethidium bromide staining based fluorescence microscopy analysis; type: cell-based
[9] = biological target: T1, Heat shock protein HSP90 (Homo sapiens); assay: Inhibition of HSP90 in human MCF7 cells assessed as induction of apoptosis by measuring live cells at 1 uM measured after 24 hrs by annexinV-FITC/propidium iodide staining based flow cytometry (reference value: 90.77 %); type: cell-based; parameters: scale not given: the % may be the effect or the level left
[10] = biological target: T1, Heat shock protein HSP90 (Homo sapiens); assay: Inhibition of HSP90 in human MCF7 cells assessed as cell cycle arrest by measuring accumulation at G2/M phase at 1 uM measured after 24 hrs by RNaseA/propidium iodide staining based flow cytometric analysis (reference value: 25.08 %); parameters: scale not given: the % may be the effect or the level left
[11] = biological target: T1, Heat shock protein HSP90 (Homo sapiens); assay: Inhibition of HSP90 in human MCF7 cells assessed as induction of morphological changes by measuring nuclei condensation at 1 uM by acridine orange/ethidium bromide staining based fluorescence microscopy analysis; type: cell-based
[12] = biological target: T1, Heat shock protein HSP90 (Homo sapiens); assay: Inhibition of HSP90 in human MCF7 cells assessed as induction of apoptosis by measuring early apototic cells at 1 uM measured after 24 hrs by annexinV-FITC/propidium iodide staining based flow cytometry (reference value: 1.31 %); type: cell-based; parameters: scale not given: the % may be the effect or the level left
[13] = biological target: T1, Heat shock protein HSP90 (Homo sapiens); assay: Inhibition of HSP90 in human MCF7 cells assessed as induction of mitochondrial membrane potential loss by measuring cell population with mitochondrial membrane potential collapse at 1 uM after 24 hrs by JC1 staining-based flow cytometry analysis (reference value: 6.53 %); parameters: scale not given: the % may be the effect or the level left
[14] = biological target: T1, Heat shock protein HSP90 (Homo sapiens); assay: Inhibition of HSP90 in human MCF7 cells assessed as induction of morphological changes by measuring membrane blebbing at 1 uM by acridine orange/ethidium bromide staining based fluorescence microscopy analysis; type: cell-based
[15] = biological target: T1, Heat shock protein HSP90 (Homo sapiens); assay: Inhibition of HSP90 in human MCF7 cells assessed as increase in ROS generation by measuring fluorescence intensity at 10 uM after 24 hrs by DCFDA staining based flow cytometry; type: cell-based
[16] = biological target: T1, Heat shock protein HSP90 (Homo sapiens); assay: Inhibition of HSP90 in human MCF7 cells assessed as cell cycle arrest by measuring accumulation at Sub-G1 phase at 1 uM measured after 24 hrs by RNaseA/propidium iodide staining based flow cytometric analysis (reference value: 3.75 %); parameters: scale not given: the % may be the effect or the level left
[17] = biological target: T1, Heat shock protein HSP90 (Homo sapiens); assay: Inhibition of HSP90 in human MCF7 cells assessed as induction of nuclear morphological changes by measuring horse shoe shaped nuclei formation at 1 uM by DAPI staining based fluorescence microscopy analysis; type: cell-based

O=c1[nH]cc(F)c(=O)[nH]1
Activity [1]: 70.3% | Activity [2]: 0.36% | Activity [3]: 29.5% | Activity [4]: 27.4% | Activity [5]: Active | Activity [6]: 27.2% | Activity [7]: 7.99% | inhibition [8]: Active | Activity [9]: 70.5% | Activity [10]: 26.4% | inhibition [11]: Active | Activity [12]: 1.94% | Activity [13]: 26.8% | inhibition [14]: Active | inhibition [15]: Active | Activity [16]: 12.2% | inhibition [17]: Active

Reference: ChEMBL document CHEMBL4725367, “Novel anticancer Hsp90 inhibitor disubstituted pyrazolyl 2-aminopyrimidine compound 7t induces cell cycle arrest and apoptosis via mitochondrial pathway in MCF-7 cells” (Bioorg Med Chem Lett, 2020)
